Experiments:
[1] = In-vivo pharmacokinetic study in rats; settings: male, SD, rat, plasma
Experimental: This experiment was intended to evaluate the pharmacokinetic behavior of each compound after a single intravenous injection and intragastric administration and to investigate the bioavailability after intragastric administration.
Male SD rats aged 7 to 10 weeks were selected. The rats were fasted for at least 12 h before administration and were allowed to feed again 4 h after administration, with free access to water throughout the experiment.
On the day of the experiment, animals in the intravenous group were given the corresponding compound by a single injection via the tail vein at an administration volume of 5 mL/kg; the oral group was given the corresponding compound by a single intragastric administration at an administration volume of 10 mL/kg. The animals were weighed before administration, and the administration volume was calculated based on their body weight. Sample collection time points: 0.083 h (injection group), 0.25 h, 0.5 h, 1 h, 2 h, 4 h, 6 h, 8 h, and 24 h. At each time point, approximately 200 μL of whole blood was collected via the jugular vein, which was then used to prepare plasma for concentration determination by high performance liquid chromatography-tandem mass spectrometry (LC-MS/MS).
All animals were euthanized with CO2 anesthesia after the PK samples were taken at the last time point. The plasma concentrations were processed using a non-compartmental model of the pharmacokinetic software WinNonlin™ Version 6.3 (Pharsight, Mountain View, CA), and the pharmacokinetic parameters were calculated using a linear log-trapezoidal method.

[2] = test system: human pancreatic cancer MIA PaCa-2 cell line subcutaneous xenograft; assay: In-vivo inhibition of MiaPaCa-2 subcutaneous xenograft tumor; set-up: species or system female BALB/c nude mouse
Experimental: To evaluate the antitumor effect of each test drug in a female BALB/c nude mouse animal model with subcutaneous xenograft of a human pancreatic cancer MIA PaCa-2 cell line.
MIA PaCa-2 cells were cultured in a DMEM medium containing 2.5% HS and 10% fetal bovine serum. MIA PaCa-2 cells in the logarithmic growth phase were collected and resuspended in PBS to achieve an appropriate concentration for subcutaneous tumor inoculation in nude mice.
The experimental mice were inoculated subcutaneously on the right dorsal side with 5×10^6 MIA PaCa-2 cells (the cells were resuspended in a 1:1 mixture of PBS and matrigel), with 0.1 mL per mouse. Tumor growth was observed regularly. Once the tumors reached an average volume of approximately 125 (100-150) mm^3, the mice were randomly divided into groups for administration based on the tumor size and body weight.
After the start of the administration, the body weight and tumor size of the mice were measured twice a week. Calculation formula for tumor volume: Tumor volume (mm^3)=1/2×(a×b^2) (where a represents long diameter and b represents short diameter).

[3] = test system: H358 cells (NCIH358_LUNG); assay: Anti-proliferation experiment on tumor cells with KRAS mutations, H358 (3D CellTiter-Glo); type: cell-based; settings: Homo sapiens, NCI-H358, 120 h, 5 days incubation with compound, ultra-low attachment plate
Description: Cell culture medium, penicillin/streptomycin antibiotics purchased from Wisent, and fetal bovine serum purchased from Biosera; 3D CellTiter-Glo (chemiluminescence detection reagent for cell viability) reagent purchased from Promega; Cell lines purchased from Nanjing Cobioer Biosciences Co., Ltd. and Wuhan Procell Life Science & Technology Co., Ltd; and Envision multimode microplate reader (PerkinElmer).
Different types of tumor cells were each seeded in an ultra-low attachment 96-well U-bottom plate, with 80 μL of cell suspension per well. The cell plate was incubated in a CO2 incubator overnight.
Each test compound was diluted in a 5-fold gradient to the 9th concentration (i.e., from 2 mM to 5.12 nM or from 200 μM to 0.512 nM) using a multi-channel pipette, with duplicate wells set up. 78 μL of medium was added to an intermediate plate, and the serially diluted compound was transferred to the corresponding wells of the intermediate plate at 2 μL/well. The mixture was mixed well and then transferred to the cell plate at 20 µL/well. The concentration of the compound transferred to the cell plate ranged from 10 μM to 0.0256 nM or from 1 μM to 0.00256 nM. The cell plate was then incubated in a CO2 incubator for 3-6 days.
The chemiluminescence detection reagent for cell viability was added to the cell plate at 100 μL/well, and the luminescence signals were stabilized by incubation for 10 min at room temperature. Readings were taken using the multimode microplate reader.
The original data were converted to inhibition rates and then the IC50 values were obtained by curve fitting using a four-parameter method (obtained from the “log(inhibitor) vs. response—Variable slope” model in GraphPad Prism). Table 2 illustrates the inhibitory activity of the compounds disclosed herein against the proliferation of different types of tumor cells.

[4] = iv, injection (tail vein), dose 2 mg/kg
[5] = oral administration, dose 20 mg/kg
[6] = Day 12, 30 mg/kg oral once daily
[7] = Day 39, 30 mg/kg oral once daily

| Compound | AUC(0-t) [1, 4] | clearance [1, 4] | bioavailability ([1]; oral 20 mg/kg vs injection 2 mg/kg) | AUC(0-t) [1, 5] | Cmax [1, 5] | Mean tumor volume [2, 6] | Inhibition rate (%) at day 39 [2, 7] | Mean tumor volume [2, 7] | IC50 [3] |
| --- | --- | --- | --- | --- | --- | --- | --- | --- | --- |
| Cc1nc(N2CCC3(CC2)Cn2nccc2C3N)c(CO)nc1Sc1ccnc(N)c1Cl (stereo not drawn) [Compound 1] | 4.05 µM·h | 17.3 mL/min/kg | 98% | 39.7 µM·h | 9.73 µM | 129.20 mm^3 | 63.1% | 278.34 mm^3 | 22.1 nM |
| CNc1nccc(Sc2nc(CO)c(N3CCC4(CC3)Cn3nccc3C4N)nc2C)c1Cl (stereo not drawn) [Compound 2] |  |  |  |  |  | 129.17 mm^3 | 66.6% | 248.09 mm^3 | 61.4 nM |
| Cc1nc(N2CCC3(CC2)Cn2nccc2C3N)c(CO)nc1Sc1cccnc1C(F)(F)F (stereo not drawn) [Compound 4] |  |  |  |  |  |  |  |  | 145 nM |
| Cc1nc(N2CCC3(CC2)Cn2nccc2C3N)c(CO)nc1Sc1ccnc(N)c1F (stereo not drawn) [Compound 6] |  |  |  |  |  |  |  |  | 120 nM |

— US20240409543A1, “PYRROLOPYRAZOLE SPIRO COMPOUND” (CHIA TAI TIANQING PHARMACEUTICAL GROUP CO., LTD., priority 2021, published 2024)
